Laboratory results reported in paper PMC11766267 (International Journal of Molecular Sciences, 2025).
“And” between values parts separate entries of the source, which are not always exact repeats. Equal values may be shown once. Read-outs that look alike come from different tables or passages of the source.

Columns and labels:
HER2 = HER2 (Homo sapiens, UniProt P04626); experiment: In vitro protein kinase inhibition assay (ELISA kit), HER2
MCF-7a = experiment: In vitro anti-estrogenic activity assay, MCF-7a
CDK2 = CDK2 (Homo sapiens, UniProt P24941); experiment: In vitro protein kinase inhibition assay (ELISA kit), CDK2
[1] = MTT cytotoxicity assay, normal cell line WI-38; format: cell-based, human; settings: human, WI-38 cells (normal human lung fibroblasts), normal (non-cancer) cell line, 24 h treatment
Outline: (§1)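 Viability signal: MTT-derived formazan, brought into solution with DMSO.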

EGFR = EGFR (Homo sapiens, UniProt P00533); experiment: In vitro protein kinase inhibition assay (ELISA kit), EGFR
HCT-116 = experiment: MTT cytotoxicity assay, HCT-116; format: cell-based; settings: Homo sapiens, 24 h treatment, mean ± SD of triplicate
Outline: as §1

[2] = test system: HCT-116, MDA-MB-231, HeLa, and MCF-7; experiment: MTT cytotoxicity assay, ranges stated over several cell lines; format: cell-based; settings: Homo sapiens, range over the compounds named
Outline: as §1

MDA-MB-231 = experiment: MTT cytotoxicity assay, MDA-MB-231; format: cell-based; settings: Homo sapiens, 24 h treatment, mean ± SD of triplicate
Outline: as §1

MCF-7 [3] = experiment: MTT cytotoxicity assay, MCF-7; format: cell-based, human; settings: Homo sapiens, MCF7, 24 h, 24 h treatment, mean ± SD of triplicate
Outline: as §1

[4] = biological target: T1, aromatase (CYP19A, EC 1.14.14.14) (Homo sapiens, UniProt P11511); experiment: biochemical
T1 construct: Microsomal samples were isolated from tissue using the Microsome Isolation Kit; tissue BioVision K983-100; host or cells: microsomes from an unnamed tissue
T1 sequence (P11511 1-503): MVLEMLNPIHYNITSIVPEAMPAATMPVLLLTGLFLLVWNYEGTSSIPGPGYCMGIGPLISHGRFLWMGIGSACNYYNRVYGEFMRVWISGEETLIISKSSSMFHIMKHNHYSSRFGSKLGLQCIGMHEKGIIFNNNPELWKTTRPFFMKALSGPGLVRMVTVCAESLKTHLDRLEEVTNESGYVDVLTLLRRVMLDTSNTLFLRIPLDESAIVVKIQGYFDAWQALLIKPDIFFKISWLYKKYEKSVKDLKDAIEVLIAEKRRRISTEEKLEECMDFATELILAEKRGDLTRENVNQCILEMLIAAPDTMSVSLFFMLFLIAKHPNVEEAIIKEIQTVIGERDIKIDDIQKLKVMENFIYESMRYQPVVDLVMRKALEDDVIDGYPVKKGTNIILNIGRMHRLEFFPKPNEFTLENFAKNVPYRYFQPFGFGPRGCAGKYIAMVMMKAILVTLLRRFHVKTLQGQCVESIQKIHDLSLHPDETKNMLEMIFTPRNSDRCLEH
Method: In vitro aromatase assay was performed using the BioVision Aromatase Activity Assay Kit (Catalog # K983-100; BioVision, Milpitas, CA, USA). Microsomal samples were isolated from tissue using the Microsome Isolation Kit (Cat. #K249; BioVision, Milpitas, CA, USA). A standard curve was established by diluting the Fluorescence Standard provided in the kit to create a 0.5 pmole/µL solution, followed by setting up a series of standards in a white 96-well plate, adjusting the total volume to 100 µL with aromatase assay buffer. For each reaction well, a 2X concentrated mix was prepared by adding 2–48 µL of the microsomal sample and 2 µL of the NADPH generating system, bringing the final volume to 50 µL with aromatase assay buffer. Background controls (no enzyme) and positive controls (with recombinant aromatase) were included. […] After a 10 min incubation at 37 °C, 30 µL of the substrate/NADP+ mixture was added to each well, and fluorescence was measured immediately in kinetic mode for 60 min at 37 °C. Finally, the change in fluorescence was calculated to determine the specific activity of aromatase using the formula provided in the kit protocol.

MCF-7 [5] = experiment: In vitro anti-estrogenic activity assay, MCF-7
HeLa = experiment: MTT cytotoxicity assay, HeLa; format: cell-based; settings: Homo sapiens, 24 h treatment, mean ± SD of triplicate
Outline: as §1

VEGFR-2 = VEGFR-2 (Homo sapiens, UniProt P35968); experiment: In vitro protein kinase inhibition assay (ELISA kit), VEGFR-2
[6] = cell count relative to the control (17β-E2)

Chain of HER2 (P04626 23-1255): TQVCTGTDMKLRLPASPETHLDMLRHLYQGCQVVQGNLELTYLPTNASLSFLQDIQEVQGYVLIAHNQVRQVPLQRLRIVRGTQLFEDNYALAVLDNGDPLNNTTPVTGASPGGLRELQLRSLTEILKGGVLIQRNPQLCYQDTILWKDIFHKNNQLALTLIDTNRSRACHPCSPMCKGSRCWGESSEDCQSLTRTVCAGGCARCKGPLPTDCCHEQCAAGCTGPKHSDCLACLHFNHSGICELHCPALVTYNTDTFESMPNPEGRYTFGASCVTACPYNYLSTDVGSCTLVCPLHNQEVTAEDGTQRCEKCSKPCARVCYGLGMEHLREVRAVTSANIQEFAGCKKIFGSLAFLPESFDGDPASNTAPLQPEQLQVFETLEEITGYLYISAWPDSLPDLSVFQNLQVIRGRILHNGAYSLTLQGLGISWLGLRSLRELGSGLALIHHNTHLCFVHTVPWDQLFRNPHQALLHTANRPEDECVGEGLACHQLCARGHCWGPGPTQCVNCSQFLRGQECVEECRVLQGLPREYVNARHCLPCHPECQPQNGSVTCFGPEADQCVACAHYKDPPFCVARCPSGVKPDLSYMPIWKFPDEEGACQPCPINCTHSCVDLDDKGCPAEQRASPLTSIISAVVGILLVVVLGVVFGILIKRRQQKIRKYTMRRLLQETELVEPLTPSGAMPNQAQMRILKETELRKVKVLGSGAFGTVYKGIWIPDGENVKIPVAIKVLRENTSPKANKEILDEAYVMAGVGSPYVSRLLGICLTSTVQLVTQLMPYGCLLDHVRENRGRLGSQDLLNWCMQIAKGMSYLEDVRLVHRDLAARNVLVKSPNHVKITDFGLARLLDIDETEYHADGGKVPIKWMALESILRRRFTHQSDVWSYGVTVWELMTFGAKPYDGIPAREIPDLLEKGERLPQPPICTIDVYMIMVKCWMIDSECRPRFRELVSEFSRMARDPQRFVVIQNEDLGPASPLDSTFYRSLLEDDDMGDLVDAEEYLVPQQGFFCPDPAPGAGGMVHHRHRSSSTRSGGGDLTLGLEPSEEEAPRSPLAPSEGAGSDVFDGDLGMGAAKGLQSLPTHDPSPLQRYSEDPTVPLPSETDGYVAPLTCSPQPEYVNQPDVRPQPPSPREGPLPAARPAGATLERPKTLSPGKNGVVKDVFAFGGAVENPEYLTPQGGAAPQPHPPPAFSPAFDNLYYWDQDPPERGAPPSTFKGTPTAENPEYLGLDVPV
Chain of VEGFR-2 (P35968 20-1356): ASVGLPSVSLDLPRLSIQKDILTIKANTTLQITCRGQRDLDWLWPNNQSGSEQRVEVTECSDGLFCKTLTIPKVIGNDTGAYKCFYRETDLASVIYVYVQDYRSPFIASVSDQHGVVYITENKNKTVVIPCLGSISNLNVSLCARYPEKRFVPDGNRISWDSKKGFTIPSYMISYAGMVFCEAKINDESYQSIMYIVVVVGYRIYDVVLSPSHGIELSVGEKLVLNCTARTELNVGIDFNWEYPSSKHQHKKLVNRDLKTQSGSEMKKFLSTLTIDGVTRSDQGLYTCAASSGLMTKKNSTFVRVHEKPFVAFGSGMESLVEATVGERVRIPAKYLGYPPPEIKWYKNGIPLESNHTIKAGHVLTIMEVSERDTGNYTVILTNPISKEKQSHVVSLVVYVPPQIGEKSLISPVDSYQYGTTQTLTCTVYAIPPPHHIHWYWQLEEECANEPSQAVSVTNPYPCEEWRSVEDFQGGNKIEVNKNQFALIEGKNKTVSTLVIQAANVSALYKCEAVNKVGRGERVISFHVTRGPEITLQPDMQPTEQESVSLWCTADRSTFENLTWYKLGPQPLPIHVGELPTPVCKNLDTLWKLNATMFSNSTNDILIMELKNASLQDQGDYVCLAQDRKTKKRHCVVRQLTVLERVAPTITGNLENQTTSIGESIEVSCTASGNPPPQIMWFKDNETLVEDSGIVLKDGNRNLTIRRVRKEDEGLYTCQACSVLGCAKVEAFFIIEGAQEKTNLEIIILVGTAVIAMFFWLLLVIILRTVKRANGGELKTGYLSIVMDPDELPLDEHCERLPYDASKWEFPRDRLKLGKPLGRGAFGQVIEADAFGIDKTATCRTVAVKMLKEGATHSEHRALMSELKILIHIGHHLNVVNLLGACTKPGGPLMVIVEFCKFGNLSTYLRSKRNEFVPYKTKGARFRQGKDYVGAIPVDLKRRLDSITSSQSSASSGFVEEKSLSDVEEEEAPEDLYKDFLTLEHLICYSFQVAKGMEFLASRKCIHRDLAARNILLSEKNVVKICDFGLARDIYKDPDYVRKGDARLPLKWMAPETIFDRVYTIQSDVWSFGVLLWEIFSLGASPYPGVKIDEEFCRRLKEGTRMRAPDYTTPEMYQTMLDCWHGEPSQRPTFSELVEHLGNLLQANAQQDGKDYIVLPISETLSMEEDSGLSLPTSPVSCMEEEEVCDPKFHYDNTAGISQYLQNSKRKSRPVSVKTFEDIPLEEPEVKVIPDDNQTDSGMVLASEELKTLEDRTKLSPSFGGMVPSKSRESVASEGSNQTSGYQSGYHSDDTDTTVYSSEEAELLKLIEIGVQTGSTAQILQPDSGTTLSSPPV
Chain of EGFR (P00533 25-1210): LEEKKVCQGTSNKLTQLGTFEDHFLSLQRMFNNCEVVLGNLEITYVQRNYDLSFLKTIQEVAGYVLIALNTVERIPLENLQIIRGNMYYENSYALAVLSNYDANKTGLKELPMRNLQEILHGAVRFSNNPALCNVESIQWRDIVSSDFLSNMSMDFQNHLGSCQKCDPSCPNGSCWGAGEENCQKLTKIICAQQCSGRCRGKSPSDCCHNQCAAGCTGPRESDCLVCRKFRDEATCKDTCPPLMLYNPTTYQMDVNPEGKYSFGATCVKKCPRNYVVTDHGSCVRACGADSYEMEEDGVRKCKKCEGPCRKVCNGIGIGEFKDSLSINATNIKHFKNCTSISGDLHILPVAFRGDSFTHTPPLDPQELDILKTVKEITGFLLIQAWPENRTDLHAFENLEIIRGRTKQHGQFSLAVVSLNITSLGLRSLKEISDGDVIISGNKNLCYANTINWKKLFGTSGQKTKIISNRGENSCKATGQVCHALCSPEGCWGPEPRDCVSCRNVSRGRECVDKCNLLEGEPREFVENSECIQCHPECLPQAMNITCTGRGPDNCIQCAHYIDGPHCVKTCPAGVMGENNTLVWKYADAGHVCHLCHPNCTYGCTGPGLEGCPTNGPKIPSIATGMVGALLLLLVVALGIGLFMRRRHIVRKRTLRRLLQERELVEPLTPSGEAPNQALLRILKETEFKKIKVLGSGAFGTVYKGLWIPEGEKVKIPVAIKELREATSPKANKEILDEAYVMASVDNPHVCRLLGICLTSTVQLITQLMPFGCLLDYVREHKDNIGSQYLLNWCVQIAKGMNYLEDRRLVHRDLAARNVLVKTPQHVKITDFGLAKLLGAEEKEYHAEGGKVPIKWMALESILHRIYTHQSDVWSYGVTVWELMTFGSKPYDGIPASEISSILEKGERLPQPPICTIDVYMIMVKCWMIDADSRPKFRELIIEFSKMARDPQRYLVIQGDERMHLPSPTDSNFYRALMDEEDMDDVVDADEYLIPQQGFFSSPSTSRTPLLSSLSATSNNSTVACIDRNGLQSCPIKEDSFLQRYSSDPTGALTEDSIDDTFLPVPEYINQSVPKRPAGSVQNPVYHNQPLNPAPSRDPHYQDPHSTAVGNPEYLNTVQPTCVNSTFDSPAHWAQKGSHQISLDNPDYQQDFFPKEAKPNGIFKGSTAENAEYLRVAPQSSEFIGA

## COc1cccc(C(=O)/C=C/c2ccc(OCc3ccccc3)cc2)c1 [Compound 4q, (E)-3-(4-(Benzyloxy)phenyl)-1-(3-methoxyphenyl)prop-2-en-1-one]
HER2
  IC50: ~0.144 µM
HER2; 0.01 µM, individual Data 1-3
  Inhibition (%) Her2: 25% and 25.9%
HER2; 0.1 µM, individual Data 1-3
  Inhibition (%) Her2: 47.70% and 48.76%
HER2; 1 µM, individual Data 1-3
  Inhibition (%) Her2: 68.30% and 69.5%
HER2; 10 µM, individual Data 1-3
  Inhibition (%) Her2: 86.89% and 87.78%
HER2; 100 µM, individual Data 1-3
  Inhibition (%) Her2: 95.7% and 96.9%
HER2; read-out: Inhibition % at 0.1 µM HER2, 0.1 µM, the data between the highest and lowest values
  inhibition at 0.1 µM: 48%
HER2; read-out: Inhibition (%) Her2, 0.01 µM, individual Data 1-3
  inhibition at 0.01 µM: 25.6%
HER2; read-out: Inhibition (%) Her2, 0.1 µM, individual Data 1-3
  inhibition at 0.1 µM: 48%
HER2; read-out: Inhibition (%) Her2, 1 µM, individual Data 1-3
  inhibition at 1 µM: 68.9%
HER2; read-out: Inhibition (%) Her2, 10 µM, individual Data 1-3
  inhibition at 10 µM: 87.3%
HER2; read-out: Inhibition (%) Her2, 100 µM, individual Data 1-3
  inhibition at 100 µM: 96.2%
MCF-7a; [6]
  Cell Proliferation MCF-7a %: 99%
MCF-7a; mean ± SD of triplicate
  Cell Proliferation MCF-7a Cell Count: 20,630 ± 595
MCF-7a; relative to control
  Inhibition in MCF-7a: 1%
CDK2
  IC50: ~0.17 µM
CDK2; 0.01 µM, individual Data 1-3
  Inhibition (%) CDK2: 24.8% and 25.2%
CDK2; 0.1 µM, individual Data 1-3
  Inhibition (%) CDK2: 41.7% and 42.2%
CDK2; 1 µM, individual Data 1-3
  Inhibition (%) CDK2: 70.9% and 71.2%
CDK2; 10 µM, individual Data 1-3
  Inhibition (%) CDK2: 87.8% and 88.3%
CDK2; 100 µM, individual Data 1-3
  Inhibition (%) CDK2: 96% and 96.6%
CDK2; read-out: Inhibition % at 0.1 µM CDK2, 0.1 µM, the data between the highest and lowest values
  inhibition at 0.1 µM: 41.9%
CDK2; read-out: Inhibition (%) CDK2, 0.01 µM, individual Data 1-3
  inhibition at 0.01 µM: 25.1%
CDK2; read-out: Inhibition (%) CDK2, 0.1 µM, individual Data 1-3
  inhibition at 0.1 µM: 41.9%
CDK2; read-out: Inhibition (%) CDK2, 1 µM, individual Data 1-3
  inhibition at 1 µM: 71.1%
CDK2; read-out: Inhibition (%) CDK2, 10 µM, individual Data 1-3
  inhibition at 10 µM: 88.1%
CDK2; read-out: Inhibition (%) CDK2, 100 µM, individual Data 1-3
  inhibition at 100 µM: 96.3%
[1]
  IC50 at 24 h: > 100 µM
EGFR
  IC50: 0.151 ± 0.005 µM
EGFR; 0.01 µM, individual Data 1-3
  Inhibition (%) EGFR: 22.9% and 24.2%
EGFR; 0.1 µM, individual Data 1-3
  Inhibition (%) EGFR: 45.2% and 47.5%
EGFR; 1 µM, individual Data 1-3
  Inhibition (%) EGFR: 71.9% and 70.2%
EGFR; 10 µM, individual Data 1-3
  Inhibition (%) EGFR: 86.9% and 90%
EGFR; 100 µM, individual Data 1-3
  Inhibition (%) EGFR: 95.6% and 97.9%
EGFR; read-out: Inhibition (%) EGFR, 0.01 µM, individual Data 1-3
  inhibition at 0.01 µM: 23.4%
EGFR; read-out: Inhibition (%) EGFR, 0.1 µM, individual Data 1-3
  inhibition at 0.1 µM: 46.8%
EGFR; read-out: Inhibition (%) EGFR, 1 µM, individual Data 1-3
  inhibition at 1 µM: 72%
EGFR; read-out: Inhibition (%) EGFR, 10 µM, individual Data 1-3
  inhibition at 10 µM: 88.4%
EGFR; read-out: Inhibition (%) EGFR, 100 µM, individual Data 1-3
  inhibition at 100 µM: 96.3%
HCT-116
  IC50: 17.1 ± 1.3 µM
[2]; HCT-116 and HeLa, read-out: IC50 values, range against HCT-116 and HeLa
  IC50: 6.59 to 22.6 µM
[2]; MDA-MB-231 and MCF-7, read-out: IC50 values, range against MDA-MB-231 and MCF-7
  IC50: 2.08 to 13.6 µM
MDA-MB-231
  IC50: 13.6 ± 1.1 µM
MCF-7 [3]
  IC50: 11.6 ± 0.9 µM
[4]; 0.01 µM, individual Data 1-3
  Inhibition (%) Aromatase: 6.6% and 8.9%
[4]; 0.1 µM, individual Data 1-3
  Inhibition (%) Aromatase: 17.9% and 20.7%
[4]; 1 µM, individual Data 1-3
  Inhibition (%) Aromatase: 54% and 53.8%
[4]; 10 µM, individual Data 1-3
  Inhibition (%) Aromatase: 81.5% and 83.9%
[4]; 100 µM, individual Data 1-3
  Inhibition (%) Aromatase: 91.6% and 93.8%
[4]; mean ± SD of triplicate, approximate values, read-out: Aromatase Inhibition IC50
  IC50: 0.901 µM and 0.801 µM
[4]; read-out: Inhibition (%) Aromatase, 0.01 µM, individual Data 1-3
  inhibition at 0.01 µM: 7.8%
[4]; read-out: Inhibition (%) Aromatase, 0.1 µM, individual Data 1-3
  inhibition at 0.1 µM: 19%
[4]; read-out: Inhibition (%) Aromatase, 1 µM, individual Data 1-3
  inhibition at 1 µM: 55.9%
[4]; read-out: Inhibition (%) Aromatase, 10 µM, individual Data 1-3
  inhibition at 10 µM: 82%
[4]; read-out: Inhibition (%) Aromatase, 100 µM, individual Data 1-3
  inhibition at 100 µM: 92%
MCF-7 [5]; [6]
  Cell Proliferation MCF-7 %: 37%
MCF-7 [5]; mean ± SD of triplicate
  Cell Proliferation MCF-7 Cell Count: 6874 ± 245
MCF-7 [5]; relative to control
  Reduction of growth/cell count (inhibition) in MCF-7: 63%
HeLa
  IC50: 22.6 ± 1.7 µM
VEGFR-2
  IC50: 0.287 ± 0.01 µM
VEGFR-2; 0.01 µM, individual Data 1-3
  Inhibition (%) VEGFR2: 16.9%
VEGFR-2; 0.1 µM, individual Data 1-3
  Inhibition (%) VEGFR2: 38.9% and 39.1%
VEGFR-2; 1 µM, individual Data 1-3
  Inhibition (%) VEGFR2: 66.7% and 66.4%
VEGFR-2; 10 µM, individual Data 1-3
  Inhibition (%) VEGFR2: 87.1% and 87.6%
VEGFR-2; 100 µM, individual Data 1-3
  Inhibition (%) VEGFR2: 95.4% and 95.9%
VEGFR-2; read-out: Inhibition (%) VEGFR2, 0.01 µM, individual Data 1-3
  inhibition at 0.01 µM: 17%
VEGFR-2; read-out: Inhibition (%) VEGFR2, 0.1 µM, individual Data 1-3
  inhibition at 0.1 µM: 39%
VEGFR-2; read-out: Inhibition (%) VEGFR2, 1 µM, individual Data 1-3
  inhibition at 1 µM: 66.8%
VEGFR-2; read-out: Inhibition (%) VEGFR2, 10 µM, individual Data 1-3
  inhibition at 10 µM: 87.3%
VEGFR-2; read-out: Inhibition (%) VEGFR2, 100 µM, individual Data 1-3
  inhibition at 100 µM: 95.7%
